Calls of active or inactive are those of the source. The calls are words filed in the database; no cut-off is given here.
Experiments:
A549 [1] = test: Antiproliferative activity against human A549 cells at 10 to 100 uM incubated for 48 hrs by MTT assay; assay type: functional, cell-based
B16-F10 [2] = test: Antiproliferative activity against mouse B16F10 cells at 10 to 100 uM incubated for 48 hrs by MTT assay; assay type: functional, cell-based
HeLa [3] = test: Antiproliferative activity against human HeLa cells at 10 to 100 uM incubated for 48 hrs by MTT assay; assay type: functional, cell-based
B16-F10 [4] = test: Induction of apoptosis in mouse B16F10 cells assessed as late apoptosis cells level at 7 uM incubated for 48 hrs by Annexin V-FITC and PI staining based flow cytometry (reference value: 0.02 +/- 0.21%); assay type: functional
HeLa [5] = test: Antiproliferative activity against human HeLa cells incubated for 48 hrs by MTT assay; assay type: functional, cell-based
A549 [6] = test: Antiproliferative activity against human A549 cells incubated for 48 hrs by MTT assay; assay type: functional, cell-based; conditions: A549, 48 h
HEK293 = test: Cytotoxicity in HEK293 cells assessed as reduction in cel viability incubated for 48 hrs by MTT assay; assay type: cell-based; conditions: Homo sapiens, HEK293, 48 h
B16-F10 [7] = test: Antiproliferative activity against mouse B16F10 cells incubated for 48 hrs by MTT assay; assay type: functional, cell-based; conditions: B16-F10, 48 h
[8] = Selectivity index, ratio of IC50 for cytotoxicity in HEK293 cells assessed as reduction in cell viability incubated for 48 hrs by MTT assay to IC50 for antiproliferative activity against human HeLa cells incubated for 48 hrs by MTT assay; assay type: toxicity, cell-based; conditions: read-out: Ratio IC50
B16-F10 [9] = test: Induction of apoptosis in mouse B16F10 cells assessed as early apoptosis cells level at 7 uM incubated for 48 hrs by Annexin V-FITC and PI staining based flow cytometry (reference value: 0.03 +/- 0.013%); assay type: functional
[10] = Selectivity index, ratio of IC50 for cytotoxicity in HEK293 cells assessed as reduction in cell viability incubated for 48 hrs by MTT assay to IC50 for antiproliferative activity against human A549 cells incubated for 48 hrs by MTT assay; assay type: toxicity, cell-based; conditions: read-out: Ratio IC50
[11] = Selectivity index, ratio of IC50 for cytotoxicity in HEK293 cells assessed as reduction in cell viability incubated for 48 hrs by MTT assay to IC50 for antiproliferative activity against mouse B16F10 cells incubated for 48 hrs by MTT assay; assay type: toxicity, cell-based; conditions: read-out: Ratio IC50

IC50 (HeLa [5]) [µM] | IC50 (A549 [6]) [µM] | IC50 (B16-F10 [7]) [µM] | Structure (SMILES) | Activity (A549 [1]) | Activity (B16-F10 [2]) | Activity (HeLa [3]) | Activity (B16-F10 [4]) [%] | IC50 (HEK293) [µM] | selectivity ratio at 48 h [8] | Activity (B16-F10 [9]) [%] | selectivity ratio at 48 h [10] | selectivity ratio at 48 h [11]
 |  |  | COc1ccc(-c2cn3cc(C4=CCN(C(=O)c5ccccc5F)CC4)ccc3n2)cc1OC | Active | Active | Active |  |  |  |  |  | 
 |  |  | COc1ccc(-c2cn3cc(C4=CCN(S(=O)(=O)c5ccc(C)cc5)CC4)ccc3n2)cc1OC | Active | Active | Active |  |  |  |  |  | 
 |  |  | CCCS(=O)(=O)N1CC=C(c2ccc3nc(-c4ccc(OC)c(OC)c4)cn3c2)CC1 | Active | Active | Active |  |  |  |  |  | 
 |  |  | COc1ccc(-c2cn3cc(C4=CCN(C(=O)c5cccc(F)c5)CC4)ccc3n2)cc1OC | Active | Active | Active |  |  |  |  |  | 
 |  |  | COc1ccc(-c2cn3cc(C4=CCN(C(=O)c5ccc(F)cc5)CC4)ccc3n2)cc1OC | Active | Active | Active |  |  |  |  |  | 
 |  |  | COc1ccc(-c2cn3cc(C4=CCN(S(=O)(=O)c5ccc(C(C)=O)cc5)CC4)ccc3n2)cc1OC | Active | Active | Active |  |  |  |  |  | 
 |  |  | COc1ccc(-c2cn3cc(C4=CCN(C(=O)c5ccccn5)CC4)ccc3n2)cc1OC | Active | Active | Active |  |  |  |  |  | 
 |  |  | COc1ccc(-c2cn3cc(C4=CCN(S(=O)(=O)C(F)(F)F)CC4)ccc3n2)cc1OC | Active | Active | Active |  |  |  |  |  | 
 |  |  | COc1ccc(-c2cn3cc(C4=CCN(S(=O)(=O)c5ccc(C(C)(C)C)cc5)CC4)ccc3n2)cc1OC | Active | Active | Active |  |  |  |  |  | 
5.48 | 4.34 | 7.1 | COc1ccc(-c2cn3cc(C4=CCN(C(=O)C(C)(C)C)CC4)ccc3n2)cc1OC | Active | Active | Active | 57.3 | 66.6 | 10 to 14 | 25.4 | 10 to 14 | 10 to 14
 |  |  | C=CC(=O)N1CC=C(c2ccc3nc(-c4ccc(OC)c(OC)c4)cn3c2)CC1 | Active | Active | Active |  |  |  |  |  | 
 |  |  | COc1ccc(-c2cn3cc(C4=CCN(S(=O)(=O)c5ccc(Br)s5)CC4)ccc3n2)cc1OC | Active | Active | Active |  |  |  |  |  | 
 |  |  | COc1ccc(-c2cn3cc(C4=CCN(C(=O)N(C)C)CC4)ccc3n2)cc1OC | Active | Active | Active |  |  |  |  |  | 
 |  |  | COc1ccc(-c2cn3cc(C4=CCN(S(=O)(=O)c5ccc([N+](=O)[O-])cc5)CC4)ccc3n2)cc1OC | Active | Active | Active |  |  |  |  |  | 
15.8 | 9.14 | 19.4 | COc1ccc(-c2cn3cc(C4=CCN(C(=O)C5CC5)CC4)ccc3n2)cc1OC | Active | Active | Active |  | 77.5 | 10 to 14 |  | 10 to 14 | 10 to 14
9.99 | 4.49 | 11.1 | COc1ccc(-c2cn3cc(C4=CCN(S(=O)(=O)C5CCCCC5)CC4)ccc3n2)cc1OC | Active | Active | Active |  | 75 | 10 to 14 |  | 10 to 14 | 10 to 14
4.86 | 3.69 | 7.89 | COc1ccc(-c2cn3cc(C4=CCN(C(=O)c5cccc(C(F)(F)F)c5)CC4)ccc3n2)cc1OC | Active | Active | Active |  | 68.4 | 10 to 14 |  | 10 to 14 | 10 to 14
 |  |  | COc1ccc(-c2cn3cc(C4=CCN(S(=O)(=O)c5ccc(Cl)cc5)CC4)ccc3n2)cc1OC | Active | Active | Active |  |  |  |  |  | 
 |  |  | COc1ccc(-c2cn3cc(C4=CCN(C(=O)c5ccc(F)cc5F)CC4)ccc3n2)cc1OC | Active | Active | Active |  |  |  |  |  | 
16 | 5.2 | 19.5 | COc1ccc(-c2cn3cc(C4=CCN(C(=O)c5cccs5)CC4)ccc3n2)cc1OC | Active | Active | Active |  | 98.1 | 10 to 14 |  | 10 to 14 | 10 to 14

IC50 (HeLa [5]) [µM] | IC50 (A549 [6]) [µM] | IC50 (B16-F10 [7]) [µM] | Structure (SMILES) | Activity (A549 [1]) | Activity (B16-F10 [2]) | Activity (HeLa [3]) | Activity (B16-F10 [4]) [%] | IC50 (HEK293) [µM] | selectivity ratio at 48 h [8] | Activity (B16-F10 [9]) [%] | selectivity ratio at 48 h [10] | selectivity ratio at 48 h [11]
 |  |  | COc1ccc(-c2cn3cc(C4=CCN(S(=O)(=O)c5ccc(Cl)s5)CC4)ccc3n2)cc1OC | Active | Active | Active |  |  |  |  |  | 
 |  |  | COc1ccc(-c2cn3cc(C4=CCN(C(C)=O)CC4)ccc3n2)cc1OC | Active | Active | Active |  |  |  |  |  | 
28.3 | 29.1 | 34.6 | Nc1ccccc1NC(=O)c1cnccn1 |  |  |  |  |  |  |  |  | 
 |  |  | COc1ccc(-c2cn3cc(C4=CCN(S(=O)(=O)c5ccc(F)cc5)CC4)ccc3n2)cc1OC | Active | Active | Active |  |  |  |  |  | 
 |  |  | COc1ccc(-c2cn3cc(C4=CCN(S(=O)(=O)c5ccc(Br)cc5)CC4)ccc3n2)cc1OC | Active | Active | Active |  |  |  |  |  | 
 |  |  | COc1ccc(-c2cn3cc(C4=CCNCC4)ccc3n2)cc1OC | Active | Active | Active |  |  |  |  |  | 
 |  |  | COc1ccc(-c2cn3cc(C4=CCN(S(=O)(=O)c5ccc(C(F)(F)F)cc5)CC4)ccc3n2)cc1OC | Active | Active | Active |  |  |  |  |  | 
 |  |  | CCS(=O)(=O)N1CC=C(c2ccc3nc(-c4ccc(OC)c(OC)c4)cn3c2)CC1 | Active | Active | Active |  |  |  |  |  | 
 |  |  | COc1ccc(-c2cn3cc(C4=CCN(S(=O)(=O)C5CC5)CC4)ccc3n2)cc1OC | Active | Active | Active |  |  |  |  |  | 
 |  |  | COc1ccc(-c2cn3cc(C4=CCN(C(=O)c5ccco5)CC4)ccc3n2)cc1OC | Active | Active | Active |  |  |  |  |  | 
 |  |  | COc1ccc(-c2cn3cc(C4=CCN(C(=O)COCc5ccccc5)CC4)ccc3n2)cc1OC | Active | Active | Active |  |  |  |  |  | 
8.06 | 7.31 | 10.9 | COc1ccc(-c2cn3cc(C4=CCN(C(=O)C5CCCCC5)CC4)ccc3n2)cc1OC | Active | Active | Active |  | 72.1 | 10 to 14 |  | 10 to 14 | 10 to 14
7.95 | 2.55 | 8.11 | COc1ccc(-c2cn3cc(C4=CCN(C(=O)c5ccccc5C(F)(F)F)CC4)ccc3n2)cc1OC | Active | Active | Active |  | 82.9 | 10 to 14 |  | 10 to 14 | 10 to 14
 |  |  | COc1ccc(-c2cn3cc(C4=CCN(S(=O)(=O)CC(C)C)CC4)ccc3n2)cc1OC | Active | Active | Active |  |  |  |  |  | 
 |  |  | COc1ccc(-c2cn3cc(C4=CCN(C(=O)c5cocn5)CC4)ccc3n2)cc1OC | Active | Active | Active |  |  |  |  |  | 
8.98 | 7.69 | 8.08 | COc1ccc(-c2cn3cc(C4=CCN(S(=O)(=O)CCc5ccccc5)CC4)ccc3n2)cc1OC | Active | Active | Active |  | 70.3 | 10 to 14 |  | 10 to 14 | 10 to 14
12.6 | 7.66 | 13.2 | COc1ccc(-c2cn3cc(C4=CCN(S(=O)(=O)c5ccccc5)CC4)ccc3n2)cc1OC | Active | Active | Active |  | 65.6 | 10 to 14 |  | 10 to 14 | 10 to 14
 |  |  | COc1ccc(-c2cn3cc(C4=CCN(S(=O)(=O)c5ccccc5[N+](=O)[O-])CC4)ccc3n2)cc1OC | Active | Active | Active |  |  |  |  |  | 
 |  |  | COc1ccc(S(=O)(=O)N2CC=C(c3ccc4nc(-c5ccc(OC)c(OC)c5)cn4c3)CC2)cc1 | Active | Active | Active |  |  |  |  |  | 
 |  |  | COc1ccc(-c2cn3cc(C4=CCN(C(=O)C(F)(F)F)CC4)ccc3n2)cc1OC | Active | Active | Active |  |  |  |  |  | 
